Among the data in patent US10899737B2, “Piperazine carbamates and methods of making and using same” (Lundbeck La Jolla Research Center, Inc., priority 2016, dated 2021) are inhibition and IC50 values, retold here.

What all share (assay type): biochemical
For experiment [1], the target named is T1, MAGL (Homo sapiens, UniProt Q99685).
T1 construct: Proteomes (human prefrontal cortex or cell membrane fractions); from tissue
T1 sequence (Q99685 1-303): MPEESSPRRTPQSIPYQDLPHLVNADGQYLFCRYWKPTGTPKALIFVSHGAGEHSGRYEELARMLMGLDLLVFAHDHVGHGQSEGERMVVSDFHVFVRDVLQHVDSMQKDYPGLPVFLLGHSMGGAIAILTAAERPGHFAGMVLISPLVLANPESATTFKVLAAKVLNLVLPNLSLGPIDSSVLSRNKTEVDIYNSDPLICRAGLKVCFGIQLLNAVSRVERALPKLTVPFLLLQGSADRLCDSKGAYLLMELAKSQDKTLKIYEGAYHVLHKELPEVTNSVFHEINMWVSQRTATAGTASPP
The experiment in a line: In vitro competitive activity-based protein profiling (human), MAGL. The conditions noted are these: for inhibition at 1 µM: 1 μM inhibitor, human proteome, 30 min preincubation at 37° C, read-out: MAGL % inh. 1 μM (human); for IC50: human PC3. The method, then: (§1) In Vitro Competitive Activity-Based Protein Profiling (Human).
(§2) Proteomes (human prefrontal cortex or cell membrane fractions) (50 μL, 1.0-2.0 mg/mL total protein concentration) were preincubated with varying concentrations of inhibitors at 37° C. After 30 min, FP-Rh or JW912 (1.0 μL, 50 μM in DMSO) was added and the mixture was incubated for another 30 min at room temperature. Reactions were quenched with SDS loading buffer (15 μL-4×) and run on SDS-PAGE. Following gel imaging, serine hydrolase activity was determined by measuring fluorescent intensity of gel bands corresponding to MAGL and ABHD6 using ImageJ 1.49 k software.

The target in experiment [2] is T2, ABHD6 (Homo sapiens, UniProt Q9BV23).
T2 construct: Proteomes (human prefrontal cortex or cell membrane fractions); endogenous in cells; human prefrontal cortex
T2 sequence (Q9BV23 1-337): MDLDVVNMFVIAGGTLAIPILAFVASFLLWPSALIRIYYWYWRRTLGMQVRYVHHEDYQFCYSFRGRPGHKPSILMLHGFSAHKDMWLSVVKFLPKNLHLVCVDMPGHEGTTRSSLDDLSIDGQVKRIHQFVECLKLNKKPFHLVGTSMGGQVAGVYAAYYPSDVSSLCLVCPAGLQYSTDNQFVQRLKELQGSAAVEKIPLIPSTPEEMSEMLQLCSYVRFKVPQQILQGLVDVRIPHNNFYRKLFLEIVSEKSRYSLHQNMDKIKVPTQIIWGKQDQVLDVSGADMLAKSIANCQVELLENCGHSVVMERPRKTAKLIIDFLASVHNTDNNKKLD
Put plainly: In vitro competitive activity-based protein profiling (human), ABHD6. The note with it: human PC3. How it is done: as §1, §2

In experiment [3] the target is T3, MAGL (Mus musculus, UniProt O35678).
T3 construct: Proteomes (mouse brain membrane fraction or cell lysates); from tissue; host or cells: mouse brain membrane fraction or cell lysates
T3 sequence (O35678 1-303): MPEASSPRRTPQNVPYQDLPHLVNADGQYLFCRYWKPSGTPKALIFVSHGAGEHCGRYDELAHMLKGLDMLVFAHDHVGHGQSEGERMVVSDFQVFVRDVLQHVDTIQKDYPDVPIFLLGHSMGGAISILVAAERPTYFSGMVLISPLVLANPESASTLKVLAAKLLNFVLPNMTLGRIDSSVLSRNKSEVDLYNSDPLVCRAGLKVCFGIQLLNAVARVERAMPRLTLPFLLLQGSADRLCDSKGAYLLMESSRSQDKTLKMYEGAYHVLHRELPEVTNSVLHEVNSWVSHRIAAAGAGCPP
Put plainly: In vitro competitive activity-based protein profiling (mouse), MAGL. The note with it: 1 μM inhibitor, mouse brain membrane fraction or cell lysates; read-out: MAGL % inh. 1 μM (mouse). How it is done:
(§3) In Vitro Competitive Activity-Based Protein Profiling (Mouse).
(§4) Proteomes (mouse brain membrane fraction or cell lysates) (50 μL, 1.0 mg/mL total protein concentration) were preincubated with varying concentrations of inhibitors at 37° C. After 30 min, FP-Rh (1.0 μL, 50 μM in DMSO) was added and the mixture was incubated for another 30 min at 37° C. Reactions were quenched with SDS loading buffer (50 μL-4×) and run on SDS-PAGE. Following gel imaging, serine hydrolase activity was determined by measuring fluorescent intensity of gel bands corresponding to MAGL and ABHD6 using ImageJ 1.49 k software. Data from this assay is shown in Table 1 (% inhibition at 1 μM).

Experiment [4] has as its target T4, ABHD6 (Mus musculus, UniProt Q8R2Y0).
T4 construct: Proteomes (mouse brain membrane fraction or cell lysates); from tissue; host or cells: mouse brain membrane fraction or cell lysates
T4 sequence (Q8R2Y0 1-336): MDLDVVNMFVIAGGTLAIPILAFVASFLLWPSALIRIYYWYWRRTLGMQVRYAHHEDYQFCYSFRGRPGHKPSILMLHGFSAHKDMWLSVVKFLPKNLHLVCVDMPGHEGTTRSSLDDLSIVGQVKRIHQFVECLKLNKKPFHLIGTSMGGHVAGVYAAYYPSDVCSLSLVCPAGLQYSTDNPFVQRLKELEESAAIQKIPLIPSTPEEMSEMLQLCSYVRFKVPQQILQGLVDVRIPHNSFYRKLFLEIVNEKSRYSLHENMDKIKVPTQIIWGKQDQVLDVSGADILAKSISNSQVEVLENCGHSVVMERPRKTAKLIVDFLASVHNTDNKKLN
Put plainly: In vitro competitive activity-based protein profiling (mouse), ABHD6. The note with it: 1 μM inhibitor, mouse brain membrane fraction or cell lysates; read-out: ABHD6 % inh. 1 μM (mouse). How it is done:
as §3, §4

By IC50 is commonly meant the point on the concentration scale where inhibition reaches its midpoint. Low readings indicate inhibition by little substance, high ones a need for much substance. On to `O=C(OC(C(F)(F)F)C(F)(F)F)N1CCN(Cc2cc(C(F)(F)F)cc(C3(C(=O)O)CCCC3)c2)CC1` [Example 1, 1-(3-((4-(((1,1,1,3,3,3-Hexafluoropropan-2-yl)oxy)carbonyl)piperazin-1-yl)methyl)-5-(trifluoromethyl)phenyl)cyclopentane-1-carboxylic Acid], for which the inhibition at 1 µM in experiment [1], in experiment [3] and in experiment [4] was not below 75% in each case. Moreover, the IC50 was not above 0.1 µM in experiment [1] and 0.1 to 1 µM in experiment [2].

Take `O=C(O)Cn1ccc(-c2ccccc2CN2CCN(C(=O)OC(C(F)(F)F)C(F)(F)F)CC2)n1` [Example 11, 2-(3-(2-((4-(((1,1,1,3,3,3-Hexafluoropropan-2-yl)oxy)carbonyl)piperazin-1-yl)methyl)phenyl)-1H-pyrazol-1-yl)acetic Acid]: the values for the inhibition at 1 µM in experiment [1], in experiment [3] and in experiment [4] were not below 75%, not below 75% and 0 to 25%, respectively. In addition, the values for the IC50 in experiment [1] and in experiment [2] were 0.1 to 1 µM and 1 to 10 µM, respectively.

On to `N#Cc1ccc(CN2CCN(C(=O)OC(C(F)(F)F)C(F)(F)F)CC2)c(C2(C(=O)O)CCCC2)c1` [Example 30, 1-(5-Cyano-2-((4-(((1,1,1,3,3,3-hexafluoropropan-2-yl)oxy)carbonyl)piperazin-1-yl)methyl)phenyl)cyclopentane-1-carboxylic Acid], for which the inhibition at 1 µM in experiment [3] was not below 75%; in experiment [4] it was 0 to 25%.

Take `O=C(O)CN1CCC(C2CCN(c3cc(Cl)ccc3CN3CCN(C(=O)OC(C(F)(F)F)C(F)(F)F)CC3)CC2)C1` (stereo not shown) [Example 33, 2-(3-(1-(5-Chloro-2-((4-(((1,1,1,3,3,3-hexafluoropropan-2-yl)oxy)carbonyl)piperazin-1-yl)methyl)phenyl)piperidin-4-yl)pyrrolidin-1-yl)acetic Acid]: the inhibition at 1 µM in experiment [1] was not below 75%; in experiment [3], not below 75%; in experiment [4], 50 to 75%.

In the case of `N#Cc1ccc(CN2CCN(C(=O)OC(C(F)(F)F)C(F)(F)F)CC2)c(-c2ccn(CC(=O)O)n2)c1` [Example 50, 2-(3-(5-cyano-2-((4-(((1,1,1,3,3,3-hexafluoropropan-2-yl)oxy)carbonyl)piperazin-1-yl)methyl)phenyl)-1H-pyrazol-1-yl)acetic acid], the inhibition at 1 µM in experiment [1], in experiment [3] and in experiment [4] was not below 75% in each case.

With `CN1CCN(c2cc(C(F)(F)F)ccc2CN2CCN(C(=O)OC(C(F)(F)F)C(F)(F)F)CC2)CC1C(=O)O` (stereo not shown) [Example 58, 4-(2-((4-(((1,1,1,3,3,3-hexafluoropropan-2-yl)oxy)carbonyl)piperazin-1-yl)methyl)-5-(trifluoromethyl)phenyl)-1-methylpiperazine-2-carboxylic acid], the inhibition at 1 µM in experiment [1] is not below 75%; in experiment [3] it was not below 75%; in experiment [4], 0 to 25%.

For the compound `O=C(O)C1CCN(c2cc(Cl)c(F)cc2CN2CCN(C(=O)OC(C(F)(F)F)C(F)(F)F)CC2)CC1` [Example 60, 1-(5-chloro-4-fluoro-2-((4-(((1,1,1,3,3,3-hexafluoropropan-2-yl)oxy)carbonyl)piperazin1-yl)methyl)phenyl)piperidine-4-carboxylic acid], the inhibition at 1 µM in experiment [1], in experiment [3] and in experiment [4] was not below 75% in each case.

Consider `O=C(O)C1CCCCN1c1cc(C(F)(F)F)ccc1CN1CCN(C(=O)OC(C(F)(F)F)C(F)(F)F)CC1` (stereo not shown) [Example 65, 1-(2-((4-(((1,1,1,3,3,3-hexafluoropropan-2-yl)oxy)carbonyl)piperazin-1-yl)methyl)-5-(trifluoromethyl)phenyl)piperidine-2-carboxylic acid], for which the inhibition at 1 µM in experiment [1] was 50 to 75%; in experiment [3], not below 75%; in experiment [4], 0 to 25%.

With `O=C(O)C1CCN(c2c(CN3CCN(C(=O)OC(C(F)(F)F)C(F)(F)F)CC3)cccc2C(F)(F)F)CC1` [Example 74, 1-(2-((4-(((1,1,1,3,3,3-hexafluoropropan-2-yl)oxy)carbonyl)piperazin-1-yl)methyl)-6-(trifluoromethyl)phenyl)piperidine-4-carboxylic acid], the inhibition at 1 µM in experiment [1], in experiment [3] and in experiment [4] was not below 75% throughout.

As for `O=C(O)C1CCN(c2c(Cl)cccc2CN2CCN(C(=O)OC(C(F)(F)F)C(F)(F)F)CC2)CC1` [Example 75, 1-(2-chloro-6-((4-(((1,1,1,3,3,3-hexafluoropropan-2-yl)oxy)carbonyl)piperazin-1-yl)methyl)phenyl)piperidine-4-carboxylic acid], the inhibition at 1 µM in experiment [1] was not below 75%; in experiment [3], not below 75%; in experiment [4], 50 to 75%.

Take `Cc1cc(N2CCC(C(=O)O)CC2)c(CN2CCN(C(=O)OC(C(F)(F)F)C(F)(F)F)CC2)cc1F` [Example 76, 1-(4-fluoro-2-((4-(((1,1,1,3,3,3-hexafluoropropan-2-yl)oxy)carbonyl)piperazin-1-yl)methyl)-5-methylphenyl)piperidine-4-carboxylic acid]: the concentration for half-maximal inhibition (IC50) in experiment [1] is not above 0.1 µM; in experiment [2] it was 1 to 10 µM.

Take `O=C(O)C1CCN(c2ccc(CN3CCN(C(=O)OC(C(F)(F)F)C(F)(F)F)CC3)cc2)CC1` [Example 77, 1-(4-((4-(((1,1,1,3,3,3-hexafluoropropan-2-yl)oxy)carbonyl)piperazin-1-yl)methyl)phenyl)piperidine-4-carboxylic acid]: the inhibition at 1 µM in experiment [3] and in experiment [4] was not below 75% each time.

Regarding `O=C(O)C1CN(c2cc(C(F)(F)F)ccc2CN2CCN(C(=O)OC(C(F)(F)F)C(F)(F)F)CC2)C1` [Example 79, 1-(2-((4-(((1,1,1,3,3,3-hexafluoropropan-2-yl)oxy)carbonyl)piperazin-1-yl)methyl)-5-(trifluoromethyl)phenyl)azetidine-3-carboxylic acid], the inhibition at 1 µM in experiment [1], in experiment [3] and in experiment [4] was not below 75% in each case.

Take `C#Cc1ccc(CN2CCN(C(=O)OC(C(F)(F)F)C(F)(F)F)CC2)c(N2CCC(C(=O)O)CC2)c1` [Example 82, 1-(5-ethynyl-2-((4-(((1,1,1,3,3,3-hexafluoropropan-2-yl)oxy)carbonyl)piperazin-1-yl)methyl)phenyl)piperidine-4-carboxylic acid]: the inhibition at 1 µM was not below 75% in experiment [1], not below 75% in experiment [3] and 50 to 75% in experiment [4].
